According to the NIST ThermoML archive (doi:10.1021/je800110r):

Details: Liquid, Vibrating tube method

CCCCCCCCCC [decane]
Details	mass density [kg/m3]
323.15 K, 19981 kPa	723.9
323.15 K, 20414 kPa	724.1
323.15 K, 20537 kPa	724.2
323.15 K, 20652 kPa	724.2
323.15 K, 20695 kPa	724.1
323.15 K, 20721 kPa	724.3
323.15 K, 20740 kPa	724.4
323.15 K, 20766 kPa	724.4
323.15 K, 20799 kPa	724.3
323.15 K, 20826 kPa	724.5
323.15 K, 20842 kPa	724.5
323.15 K, 20862 kPa	724.5
323.15 K, 20893 kPa	724.5
323.15 K, 20916 kPa	724.4
323.15 K, 20949 kPa	724.5
323.15 K, 20970 kPa	724.6
323.15 K, 20990 kPa	724.5
323.15 K, 21020 kPa	724.4
323.15 K, 21044 kPa	724.5
323.15 K, 21064 kPa	724.7
323.15 K, 21088 kPa	724.5
323.15 K, 21254 kPa	724.7
323.15 K, 21289 kPa	724.7
323.15 K, 21309 kPa	724.8
323.15 K, 21334 kPa	724.7
323.15 K, 21558 kPa	724.9
323.15 K, 21597 kPa	725
323.15 K, 21615 kPa	724.9
323.15 K, 21681 kPa	725
323.15 K, 21707 kPa	725.1
323.15 K, 21732 kPa	725.1
323.15 K, 21754 kPa	725.1
323.15 K, 21790 kPa	725.1
323.15 K, 21819 kPa	725.1
323.15 K, 21845 kPa	725.1
323.15 K, 21867 kPa	725.2
323.15 K, 21896 kPa	725.2
323.15 K, 21926 kPa	725.2
323.15 K, 21955 kPa	725.2
323.15 K, 21989 kPa	725.3
323.15 K, 22012 kPa	725.3
323.15 K, 22035 kPa	725.2
323.15 K, 22072 kPa	725.4
323.15 K, 22094 kPa	725.2
323.15 K, 22131 kPa	725.4
323.15 K, 22154 kPa	725.4
323.15 K, 22183 kPa	725.4
323.15 K, 22207 kPa	725.4
323.15 K, 22236 kPa	725.3
323.15 K, 22271 kPa	725.5
323.15 K, 22302 kPa	725.5
323.15 K, 22328 kPa	725.5
323.15 K, 22359 kPa	725.5
323.15 K, 22383 kPa	725.5
323.15 K, 22410 kPa	725.6
323.15 K, 22448 kPa	725.6
323.15 K, 22471 kPa	725.6
323.15 K, 22498 kPa	725.7
323.15 K, 22533 kPa	725.6
323.15 K, 22563 kPa	725.7
323.15 K, 22583 kPa	725.8
323.15 K, 22622 kPa	725.6
323.15 K, 22654 kPa	725.8
323.15 K, 22682 kPa	725.7
323.15 K, 23638 kPa	726.6
323.15 K, 23679 kPa	726.7
323.15 K, 24027 kPa	726.8
323.15 K, 24056 kPa	726.8
323.15 K, 24083 kPa	726.8
323.15 K, 24123 kPa	726.9
323.15 K, 24146 kPa	726.8
323.15 K, 24177 kPa	726.9
323.15 K, 24209 kPa	727
323.15 K, 24240 kPa	726.9
323.15 K, 24281 kPa	727
323.15 K, 24323 kPa	727
323.15 K, 24359 kPa	727
323.15 K, 24392 kPa	727
323.15 K, 24425 kPa	727
323.15 K, 24463 kPa	727
323.15 K, 24511 kPa	727.1
323.15 K, 24544 kPa	727.1
323.15 K, 24568 kPa	727.3
323.15 K, 24605 kPa	727.2
323.15 K, 24671 kPa	727.3
323.15 K, 25856 kPa	728
323.15 K, 25903 kPa	728.1
323.15 K, 25945 kPa	728.2
323.15 K, 25978 kPa	728.2
323.15 K, 26015 kPa	728.1
323.15 K, 26052 kPa	728.2
323.15 K, 26084 kPa	728.3
323.15 K, 26113 kPa	728.2
323.15 K, 26150 kPa	728.3
323.15 K, 26239 kPa	728.3
323.15 K, 26279 kPa	728.4
323.15 K, 26309 kPa	728.5
323.15 K, 26382 kPa	728.5
323.15 K, 26425 kPa	728.4
323.15 K, 26468 kPa	728.7
323.15 K, 26506 kPa	728.5
323.15 K, 26540 kPa	728.6
323.15 K, 26579 kPa	728.6
323.15 K, 26618 kPa	728.6
323.15 K, 26657 kPa	728.8
323.15 K, 26692 kPa	728.7
323.15 K, 27084 kPa	728.9
323.15 K, 27120 kPa	729
323.15 K, 27152 kPa	729.1
323.15 K, 27187 kPa	729.1
323.15 K, 27223 kPa	729.1
323.15 K, 27259 kPa	729.1
323.15 K, 27290 kPa	729.1
323.15 K, 27331 kPa	729.1
323.15 K, 27727 kPa	729.5
323.15 K, 27833 kPa	729.5
323.15 K, 28265 kPa	729.7
323.15 K, 28432 kPa	729.9
323.15 K, 29106 kPa	730.4
323.15 K, 29187 kPa	730.5
323.15 K, 29218 kPa	730.5
323.15 K, 29260 kPa	730.5
323.15 K, 29336 kPa	730.6
323.15 K, 29452 kPa	730.6
323.15 K, 29479 kPa	730.7
323.15 K, 29510 kPa	730.7
323.15 K, 29547 kPa	730.7
323.15 K, 29594 kPa	730.7
323.15 K, 31137 kPa	731.8
323.15 K, 31166 kPa	731.8
323.15 K, 31206 kPa	731.8
323.15 K, 32493 kPa	732.8
323.15 K, 32550 kPa	732.8
323.15 K, 32582 kPa	732.7
323.15 K, 32606 kPa	732.8
323.15 K, 32634 kPa	732.8
323.15 K, 32659 kPa	732.7
323.15 K, 32682 kPa	732.9
323.15 K, 32750 kPa	733
323.15 K, 32786 kPa	733
323.15 K, 32870 kPa	732.9
323.15 K, 33409 kPa	733.4
323.15 K, 33442 kPa	733.3
323.15 K, 33464 kPa	733.5
323.15 K, 33482 kPa	733.3
323.15 K, 33530 kPa	733.5
323.15 K, 33575 kPa	733.5
323.15 K, 33593 kPa	733.4
323.15 K, 34001 kPa	733.8
323.15 K, 34025 kPa	733.8
323.15 K, 34059 kPa	733.8
323.15 K, 34079 kPa	733.8
323.15 K, 34114 kPa	733.9
323.15 K, 34138 kPa	733.8
323.15 K, 34175 kPa	734
323.15 K, 34199 kPa	733.8
323.15 K, 34237 kPa	733.8
323.15 K, 34400 kPa	734
323.15 K, 34425 kPa	734.1
323.15 K, 34440 kPa	734
323.15 K, 34451 kPa	734.1
323.15 K, 34456 kPa	734
323.15 K, 34460 kPa	734.2
323.15 K, 34463 kPa	734.1
323.15 K, 34464 kPa	734.1
323.16 K, 356 kPa	707.2
323.16 K, 379 kPa	707.1
323.16 K, 400 kPa	707.2
323.16 K, 417 kPa	707.2
323.16 K, 438 kPa	707.2
323.16 K, 464 kPa	707.2
323.16 K, 488 kPa	707.3
323.16 K, 517 kPa	707.3
323.16 K, 541 kPa	707.3
323.16 K, 575 kPa	707.3
323.16 K, 612 kPa	707.4
323.16 K, 646 kPa	707.4
323.16 K, 728 kPa	707.6
323.16 K, 944 kPa	707.8
323.16 K, 1001 kPa	707.8
323.16 K, 1024 kPa	707.7
323.16 K, 1047 kPa	707.8
323.16 K, 1070 kPa	707.8
323.16 K, 1102 kPa	707.8
323.16 K, 1211 kPa	708
323.16 K, 1244 kPa	708
323.16 K, 1280 kPa	708.1
323.16 K, 1314 kPa	708
323.16 K, 1337 kPa	708.2
323.16 K, 1362 kPa	708.2
323.16 K, 1381 kPa	708.2
323.16 K, 1405 kPa	708.1
323.16 K, 1427 kPa	708.2
323.16 K, 1453 kPa	708.3
323.16 K, 1479 kPa	708.2
323.16 K, 1503 kPa	708.2
323.16 K, 1524 kPa	708.3
323.16 K, 1553 kPa	708.2
323.16 K, 1582 kPa	708.2
323.16 K, 1608 kPa	708.4
323.16 K, 1630 kPa	708.4
323.16 K, 1671 kPa	708.3
323.16 K, 1694 kPa	708.4
323.16 K, 1723 kPa	708.5
323.16 K, 1748 kPa	708.5
323.16 K, 1778 kPa	708.5
323.16 K, 1812 kPa	708.4
323.16 K, 1848 kPa	708.5
323.16 K, 1871 kPa	708.5
323.16 K, 1898 kPa	708.7
323.16 K, 1945 kPa	708.7
323.16 K, 1973 kPa	708.7
323.16 K, 2008 kPa	708.6
323.16 K, 2050 kPa	708.7
323.16 K, 2081 kPa	708.7
323.16 K, 2113 kPa	708.8
323.16 K, 2151 kPa	708.7
323.16 K, 2201 kPa	708.9
323.16 K, 2247 kPa	708.9
323.16 K, 2281 kPa	708.8
323.16 K, 2332 kPa	708.9
323.16 K, 2405 kPa	709.1
323.16 K, 2718 kPa	709.4
323.16 K, 2738 kPa	709.3
323.16 K, 2755 kPa	709.4
323.16 K, 2772 kPa	709.4
323.16 K, 2789 kPa	709.5
323.16 K, 2809 kPa	709.5
323.16 K, 2845 kPa	709.6
333.14 K, 21082 kPa	717.8
333.14 K, 21129 kPa	717.8
333.14 K, 26540 kPa	722.1
333.14 K, 26569 kPa	722.1
333.14 K, 26609 kPa	722
333.14 K, 26648 kPa	722.2
333.14 K, 26696 kPa	722.2
333.14 K, 26733 kPa	722.2
333.14 K, 26773 kPa	722.3
333.14 K, 26813 kPa	722.3
333.14 K, 26859 kPa	722.4
333.14 K, 26912 kPa	722.4
333.14 K, 26958 kPa	722.4
333.14 K, 26993 kPa	722.4
333.14 K, 27039 kPa	722.4
333.14 K, 27087 kPa	722.4
333.14 K, 27129 kPa	722.6
333.14 K, 27171 kPa	722.5
333.14 K, 27219 kPa	722.5
333.14 K, 30020 kPa	724.6
333.14 K, 30058 kPa	724.6
333.14 K, 30100 kPa	724.7
333.14 K, 30134 kPa	724.7
333.14 K, 30168 kPa	724.7
333.14 K, 30197 kPa	724.7
333.14 K, 30227 kPa	724.8
333.14 K, 30265 kPa	724.9
333.14 K, 30291 kPa	724.8
333.14 K, 30312 kPa	724.8
333.14 K, 30350 kPa	724.9
333.14 K, 30376 kPa	724.8
333.14 K, 30402 kPa	724.9
333.14 K, 30432 kPa	724.9
333.14 K, 30458 kPa	724.9
333.14 K, 30480 kPa	725
333.14 K, 30502 kPa	725
333.14 K, 30528 kPa	725
333.14 K, 30566 kPa	725
333.14 K, 30592 kPa	724.9
333.14 K, 30623 kPa	725
333.14 K, 30654 kPa	725.2
333.14 K, 30689 kPa	725.2
333.14 K, 31374 kPa	725.5
333.14 K, 31402 kPa	725.6
333.14 K, 31439 kPa	725.6
